Consider 13 compounds from PMC6832239, “The Effects of a Novel Series of KTTKS Analogues on Cytotoxicity and Proteolytic Activity” (Molecules, 2019).

Read-outs that look alike come from different tables or passages of the source. Residues, ends and D or L forms follow the SMILES beside them.

One series has as its target T1, plasmin (Homo sapiens, UniProt P00747).
T1 construct: purchased Chromogenix (Milano, Italy)
Description: Amidolytic activity of plasmin (chromogenic substrate H-D-Val-Leu-Lys-pNA). It counts as biochemical. Here is the method: (§1) The determination of amidolytic activity was performed as previously described by Okada. A detailed description of the method is given below: 0.2 mL of the examined peptides (0.15 M NaCl as contro), a buffer, and 0.1 mL of enzyme solution were mixed. The final peptide concentrations were: 0.2 mM, 2 mM, and 20 mM. The mixture was incubated at 37 °C for 3 min; then the synthetic substrate solution was added in the same buffer. After 20 min of incubation, the reaction was stopped by adding 0.1 mL of 50% acetic acid and the absorbance of the released p-nitroaniline was measured at 405 nm. The mean values from three independent experiments done in duplicate are presented. A method error of 5% was adopted as statistical error. IC50 value was considered as the concentration of inhibitor that reduces absorbance by 50%, compared with absorbance measured under the same conditions without an inhibitor. IC50 was calculated mathematically by extrapolation using a linear plot. IC50 values are presented in Table 1 and Table 2, and graphically in Figure 1.
(§2) The buffers and the enzyme solutions included: • Tris buffer—0.6 mL (pH 8.8), enzyme: urokinase (50 units/mL), synthetic substrate: pyro-Glu-Gly-Arg-pNA·HCl (0.1 mL, 3 mM); • Tris buffer—0.5 mL (pH 8.4), enzyme: thrombin (1 units/mL), synthetic substrate: H-D-Phe-Pip-Arg-pNA (0.2 mL, 0.75 mM); • Tris buffer—0.5 mL (pH 7.4), enzyme: plasmin (0.4 units/mL), synthetic substrate: H-D-Val-Leu-Lys-pNA (0.2 mL, 3 mM); • Borate buffer—0.5 mL (pH 7.5), enzyme: trypsin (0.4 units/mL), synthetic substrate: Bzl-L-Arg-pNA·HCl (0.2 mL, 8 mM); • Tris buffer—0.6 mL (pH 9.0), enzyme: kallikrein (3 units/mL), synthetic substrate: H-D-Val-Leu-Arg-pNA·2HCl (0.1 mL, 75 mM); • Tris buffer—0.6 mL (pH 8.4), enzyme: t-PA ([…]), synthetic substrate: H-D-Ile-Pro-Arg-pNA (0.1 mL, 10 mM) • Tris buffer—0.6 mL (pH 9.0), enzyme: chymotrypsin (0.4 units/mL), synthetic substrate: Suc-Phe-pNA (0.2 mL, 8 mM)

A further series has as its target T2, urokinase (Homo sapiens, UniProt P00749).
T2 construct: purchased Sigma (Schnelldorf, Germany)
Description: Amidolytic activity of urokinase (chromogenic substrate pyro-Glu-Gly-Arg-pNA). In kind it is biochemical. Here is the method: as §1, §2

The target of the next series is T3, thrombin (Bos taurus, UniProt P00735).
T3 construct: purchased Lubelska Wytwórnia Szczepionek (Lublin, Poland)
Description: Amidolytic activity of thrombin (chromogenic substrate H-D-Phe-Pip-Arg-pNA). It counts as biochemical. As for the experimental part:
The determination of amidolytic activity was performed as previously described by Okada. A detailed description of the method is given below: 0.2 mL of the examined peptides (0.15 M NaCl as contro), a buffer, and 0.1 mL of enzyme solution were mixed. The final peptide concentrations were: 0.2 mM, 2 mM, and 20 mM. The mixture was incubated at 37 °C for 3 min; then the synthetic substrate solution was added in the same buffer. […] The mean values from three independent experiments done in duplicate are presented. A method error of 5% was adopted as statistical error. […] IC50 was calculated mathematically by extrapolation using a linear plot.

A short description of series [1]: Viability of fibroblast cells, MTT assay. To be noted: human, primary dermal fibroblast cells, 24 h, MTT, ± 2, read-out: Viability of fibroblast cells. It counts as cell-based, Human. Here is the method: Viability of fibroblast cells was examined with the use of the MTT assay. MTT, a yellow tetrazole, is reduced to purple formazan only in living cells. Absorbance of the coloured solution was measured by a spectrophotometer.
These studies were performed on primary dermal fibroblasts cells. The cells were maintained in DMEM supplemented with 10% fetal bovine serum (FBS), 2 mM glutamin, 50 U/mL penicillin and […] streptomycin at 37 °C in a 5% CO2 incubator. For experiments, cells cultures were plated at a density of 1 × 10^6/well in six-well culture plates (Costar, St. Louis, MO, USA) in 2 mL of growth medium. Cells reached about 80% of confluency at day 2 were used for the assays.
Toxicity of the tested substances was determined using an MTT [3-(4,5-dimethylthiazol-2-yl)-2,5-diphenyltetrazolium bromide)] assay. Palmitoyl and lipoyl peptides were dissolved in DMSO (dimethyl sulfoxide), the other peptides in DMEM, and added to the cell culture medium. Simultaneously, the same concentrations of DMSO without peptides were added to cells, serving as controls. The final peptide concentrations were: 1 μM, 10 μM, and 100 μM. After 24 h incubation, the cells cultured with the tested compounds were washed with phosphate-buffered saline (PBS) and then incubated for 4 h in 2 mL of MTT solution (5 mg/mL). After removing the medium, the cells were lysed in 200 μL of DMSO with 20 μL of Sorensen’s buffer (pH 10.5, 0.1 mol/L glycine with 0.1 mol/L NaCl). The absorbance of converted dye in living cells was measured at a wavelength of 570 nm. The mean values ± SD from three independent experiments done in duplicate are presented.

[2] abbreviates: amidolytic activity, Tris pH 7.4, 37 °C, IC50 by extrapolation using a linear plot, error 5%, read-out: IC50 Plasmin.
Where [3] appears, read: amidolytic activity, Tris pH 8.8, 37 °C, IC50 by extrapolation using a linear plot, error 5%, read-out: IC50 Urokinase.
[4] abbreviates: amidolytic activity, Tris pH 8.4, 37 °C, IC50 by extrapolation using a linear plot, error 5%, read-out: IC50 Thrombin.

T1 sequence (P00747 581-810 limits assumed): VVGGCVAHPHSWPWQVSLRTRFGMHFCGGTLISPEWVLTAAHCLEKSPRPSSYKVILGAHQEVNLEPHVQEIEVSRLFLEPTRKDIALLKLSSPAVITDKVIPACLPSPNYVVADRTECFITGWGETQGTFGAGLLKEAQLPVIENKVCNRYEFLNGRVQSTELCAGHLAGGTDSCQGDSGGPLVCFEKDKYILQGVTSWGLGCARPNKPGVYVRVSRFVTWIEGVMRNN
T1 sequence (P00747 97-580 partner limits assumed): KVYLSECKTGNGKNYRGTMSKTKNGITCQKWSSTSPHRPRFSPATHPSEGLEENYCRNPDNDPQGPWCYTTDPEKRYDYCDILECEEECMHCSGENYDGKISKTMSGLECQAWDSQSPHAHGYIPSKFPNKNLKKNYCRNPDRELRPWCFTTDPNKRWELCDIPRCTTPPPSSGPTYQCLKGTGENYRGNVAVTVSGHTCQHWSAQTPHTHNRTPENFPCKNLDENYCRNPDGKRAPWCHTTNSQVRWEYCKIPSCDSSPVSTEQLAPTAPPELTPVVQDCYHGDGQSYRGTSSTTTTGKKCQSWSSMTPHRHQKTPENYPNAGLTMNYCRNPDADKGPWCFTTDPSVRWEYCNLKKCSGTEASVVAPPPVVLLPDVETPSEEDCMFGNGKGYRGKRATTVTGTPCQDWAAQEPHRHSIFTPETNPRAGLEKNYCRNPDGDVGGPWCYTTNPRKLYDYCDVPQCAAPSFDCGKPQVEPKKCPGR

On to `C[C@@H](O)[C@H](NC(=O)[C@H](CCCNC(=N)N)NC(=O)CCCCC1CCSS1)C(=O)N[C@H](C(=O)N[C@@H](CCCCN)C(=O)N[C@@H](CO)C(N)=O)[C@@H](C)O` (mixture of isomers) [Peptide 31, Lip-Arg-Thr-Thr-Lys-Ser- NH2], for which, on plasmin (setting [2]), the IC50 was 3230 ± 160 µM. Also, at urokinase (setting [3]), the IC50 is 4570 ± 230 µM. At thrombin (setting [4]), the IC50 is 5590 ± 280 µM. For the same compound, in series [1], the viability (in general, a read-out of living cells in per cent, often relative to untreated cells) at 24 h, 1 µmol/L stood at 107%; the viability at 24 h, 10 µmol/L was 112%; the viability at 24 h, 100 µmol/L was found to be 117%.
On to `C[C@@H](O)[C@H](NC(=O)[C@H](CCCNC(=N)N)NC(=O)CCCCC1CCSS1)C(=O)N[C@H](C(=O)N[C@@H](CCCNC(=N)N)C(=O)N[C@@H](CO)C(=O)O)[C@@H](C)O` (mixture of isomers) [Peptide 19, Lip-Arg-Thr-Thr-Arg-Ser-OH], for which the IC50 at plasmin (setting [2]) is 1010 ± 51 µM. In addition, the IC50 at thrombin (setting [4]) was 1840 ± 92 µM. Further, in series [1], the viability at 24 h, 1 µmol/L worked out at 79%; the viability at 24 h, 10 µmol/L came to 81%; the viability at 24 h, 100 µmol/L stood at 90%.
As for `C[C@@H](O)[C@H](NC(=O)[C@H](CCCNC(=N)N)NC(=O)CCCCC1CCSS1)C(=O)N[C@H](C(=O)N[C@@H](CCCNC(=N)N)C(=O)N[C@@H](CO)C(N)=O)[C@@H](C)O` (mixture of isomers) [Peptide 23, Lip-Arg-Thr-Thr-Arg-Ser-NH2], at plasmin (setting [2]), the IC50 was 1890 ± 94 µM. Besides, the IC50 on urokinase (setting [3]) was 4670 ± 230 µM. The IC50 on thrombin (setting [4]) is 2360 ± 120 µM. In series [1], the viability at 24 h, 1 µmol/L stood at 89%; the viability at 24 h, 10 µmol/L is 79%; the viability at 24 h, 100 µmol/L amounted to 88%.
Consider `CCCCCCCCCCCCCCCC(=O)N[C@@H](CCCNC(=N)N)C(=O)N[C@H](C(=O)N[C@H](C(=O)N[C@@H](CCCNC(=N)N)C(=O)N[C@@H](CO)C(N)=O)[C@@H](C)O)[C@@H](C)O` [Peptide 24, Pal-Arg-Thr-Thr-Arg-Ser-NH2] (HELM PEPTIDE1{[CCCCCCCCCCCCCCCC(=O)[*:2]].R.T.T.R.S.[am]}$$$$V2.0), for which the IC50 at urokinase (setting [3]) is 260 ± 13 µM. In series [1], the viability at 24 h, 1 µmol/L amounted to 94%; the viability at 24 h, 10 µmol/L was found to be 104%; the viability at 24 h, 100 µmol/L came out at 97%.
Regarding `C[C@@H](O)[C@H](NC(=O)[C@H](CCCCN)NC(=O)CCCCC1CCSS1)C(=O)N[C@H](C(=O)N[C@@H](CCCNC(=N)N)C(=O)N[C@@H](CO)C(=O)O)[C@@H](C)O` (mixture of isomers) [Peptide 11, Lip-Lys-Thr-Thr-Arg-Ser-OH], at plasmin (setting [2]), the IC50 was 240 ± 12 µM. The IC50 at thrombin (setting [4]) is 10900 ± 540 µM. Besides, in series [1], the viability at 24 h, 1 µmol/L worked out at 102%; the viability at 24 h, 10 µmol/L came out at 105%; the viability at 24 h, 100 µmol/L stood at 98%.
Consider “Ac-KTTKS-NH2 [Peptide 6, Ac-Lys-Thr-Thr-Lys-Ser-NH2]”, for which the IC50 on plasmin (setting [2]) is 2920 ± 150 µM; at urokinase (setting [3]), more than 20000 µM; on thrombin (setting [4]), 3250 ± 160 µM. Further, the viability at 24 h, 1 µmol/L in series [1] came out at 97%. Further, the viability at 24 h, 10 µmol/L in series [1] was found to be 88%. In addition, in series [1], the viability at 24 h, 100 µmol/L is 86%.
For “H-KTTRS-OH [Peptide 9, H-Lys-Thr-Thr-Arg-Ser-OH]”, the IC50 on plasmin (setting [2]) is 630 ± 31 µM. In addition, the IC50 on thrombin (setting [4]) is 4010 ± 200 µM. In series [1], the viability at 24 h, 1 µmol/L is 93%; the viability at 24 h, 10 µmol/L is 103%; the viability at 24 h, 100 µmol/L is 101%.
Turning to `CCCCCCCCCCCCCCCC(=O)N[C@@H](CCCCN)C(=O)N[C@H](C(=O)N[C@H](C(=O)N[C@@H](CCCNC(=N)N)C(=O)N[C@@H](CO)C(=O)O)[C@@H](C)O)[C@@H](C)O` [Peptide 12, Pal-Lys-Thr-Thr-Arg-Ser-OH] (HELM PEPTIDE1{[CCCCCCCCCCCCCCCC(=O)[*:2]].K.T.T.R.S}$$$$V2.0), in series [1], the viability at 24 h, 1 µmol/L came out at 103%; the viability at 24 h, 10 µmol/L was determined as 98%; the viability at 24 h, 100 µmol/L stood at 99%.
Take `C[C@@H](O)[C@H](NC(=O)[C@H](CCCNC(=N)N)NC(=O)CCCCC1CCSS1)C(=O)N[C@H](C(=O)N[C@@H](CCCCN)C(=O)N[C@@H](CO)C(=O)O)[C@@H](C)O` (mixture of isomers) [Peptide 27, Lip-Arg-Thr-Thr-Lys-Ser-OH]: the IC50 at plasmin (setting [2]) was 2120 ± 110 µM. Further, on thrombin (converted from IC50 of Table 1, read-out: -logIC50 Thrombin (converted)), the IC50 is 4270 µM. For the same compound, in series [1], the viability at 24 h, 1 µmol/L was 105%; the viability at 24 h, 10 µmol/L worked out at 91%; the viability at 24 h, 100 µmol/L is 80%.
“H-RTTRS-OH [Peptide 17, H-Arg-Thr-Thr-Arg-Ser-OH]”: the IC50 on plasmin (setting [2]) was 280 ± 14 µM. The IC50 at plasmin (converted from IC50 of Table 1, read-out: -logIC50 Plasmin (converted)) is 288 µM. For the same compound, the IC50 on thrombin (setting [4]) was 3890 ± 190 µM. In series [1], the viability at 24 h, 1 µmol/L turned out to be 89%; the viability at 24 h, 10 µmol/L is 99%; the viability at 24 h, 100 µmol/L amounted to 115%.
At urokinase, `CCCCCCCCCCCCCCCC(=O)N[C@@H](CCCCN)C(=O)N[C@H](C(=O)N[C@H](C(=O)N[C@@H](CCCNC(=N)N)C(=O)N[C@@H](CO)C(N)=O)[C@@H](C)O)[C@@H](C)O` [Peptide 16, Pal-Lys-Thr-Thr-Arg-Ser-NH2] (HELM PEPTIDE1{[CCCCCCCCCCCCCCCC(=O)[*:2]].K.T.T.R.S.[am]}$$$$V2.0) showed an IC50 of 2370 ± 120 µM. Also, in series [1], the viability at 24 h, 1 µmol/L came to 104%; the viability at 24 h, 10 µmol/L was 114%; the viability at 24 h, 100 µmol/L is 115%.
With `CCCCCCCCCCCCCCCC(=O)N[C@@H](CCCNC(=N)N)C(=O)N[C@H](C(=O)N[C@H](C(=O)N[C@@H](CCCCN)C(=O)N[C@@H](CO)C(N)=O)[C@@H](C)O)[C@@H](C)O` [Peptide 32, Pal-Arg-Thr-Thr-Lys-Ser- NH2] (HELM PEPTIDE1{[CCCCCCCCCCCCCCCC(=O)[*:2]].R.T.T.K.S.[am]}$$$$V2.0), in series [1], the viability at 24 h, 1 µmol/L is 104%; the viability at 24 h, 10 µmol/L came out at 113%; the viability at 24 h, 100 µmol/L was 118%.
In the case of `CCCCCCCCCCCCCCCC(=O)N[C@@H](CCCCN)C(=O)N[C@H](C(=O)N[C@H](C(=O)N[C@@H](CCCCN)C(=O)N[C@@H](CO)C(N)=O)[C@@H](C)O)[C@@H](C)O` [Peptide 8, Pal-Lys-Thr-Thr-Lys-Ser-NH2] (HELM PEPTIDE1{[CCCCCCCCCCCCCCCC(=O)[*:2]].K.T.T.K.S.[am]}$$$$V2.0), at plasmin (amidolytic activity, palmitic peptides, read-out: IC50 plasmin (text, micromolar)), the IC50 was less than 200 µM. In addition, the IC50 on urokinase (setting [3]) is 3120 ± 160 µM. Moreover, in series [1], the viability at 24 h, 1 µmol/L came to 96%; the viability at 24 h, 10 µmol/L was determined as 83%; the viability at 24 h, 100 µmol/L was 83%.
